Values quoted from earlier work as cited in patent US11110113B2, “Compositions and methods for treating depression” (Gentelon, Inc., priority 2016, dated 2021).

Columns and labels:
[1] = test system: Major Depressive Disorder; conditions: trial versus placebo
cerebral tissue = conditions: six months, versus placebo; schizophrenia and Huntington's disease
[2] = oral SAMe
[3] = test system: Major Depressive Disorder; conditions: double-blind studies; intravenous or intramuscular (parenteral)

SMILES: CC/C=C\C/C=C\C/C=C\C/C=C\C/C=C\C/C=C\CCC(=O)O [DHA, all-cis-4,7,10,13,16,19-docosahexaenoic acid]
- efficacy in major depressive disorder / mood-disordered population [1]: negative result

SMILES: CC/C=C\C/C=C\C/C=C\C/C=C\C/C=C\CCCC(=O)OCC [E-EPA]
- efficacy in major depressive disorder / mood-disordered population [1]: advantage over placebo
- grey and white matter (cerebral tissue): significant increase

SMILES: C[S+](CC[C@H](N)C(=O)[O-])C[C@H]1O[C@@H](n2cnc3c(N)ncnc32)[C@H](O)[C@@H]1O (stereo partly shown) [SAMe, S-Adenosyl methionine]
- half-life [2]: about 100 minutes
- efficacy in treatment of Major Depressive Disorder [3]: effective

SMILES: Nc1nc2ncc(CNc3ccc(C(=O)N[C@@H](CCC(=O)O)C(=O)O)cc3)nc2c(=O)[nH]1 [folic acid]
- depression symptomatology (depression; longer term supplementation, patients with unipolar and bipolar depression): statistically significant improvements

SMILES: Nc1nc2c(c(=O)[nH]1)N(C=O)C(CNc1ccc(C(=O)N[C@@H](CCC(=O)O)C(=O)O)cc1)CN2 (stereo partly shown) [folinic acid]
- depression scores (depression; patients inadequately responsive to monotherapy with a serotonin reuptake inhibitor): significant reduction
